According to ChEMBL document CHEMBL1201862, “PubChem BioAssay data set” (2004):
Calls of active or inactive are those of the source.

Assays:
[1] = luciferase reporter signal suppression in cells – H4 neuroglioma cells, luminescence, dose response (AID 1990); format: functional, cell-based
[2] = decrease of insulin promoter-GFP reporter – imaging, high-content screening, mouse beta cells (AID 1628); format: functional; details: MIN6
[3] = Luminescence Cell-Based Dose Response HTS to Identify Inhibitors of 5'UTR Stem-Loop Driven Prion Protein mRNA Translation in H4 Neuroglioblastoma Cells. [Related pubchem assays: 1827 (Project Summary), 1813 (Primary HTS)]; format: functional
[4] = MIN6 cell viability loss – mouse insulinoma, cytotoxicity control, dose response (AID 2122); format: functional;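 also: confirmatory high-throughput counterscreen run to flag cytotoxic compounds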
[5] = alpha-synuclein stem-loop luciferase translation blockers – H4 neuroglioma cells, luminescence, confirmation (AID 1988); format: functional, cell-based
[6] = Trypanosoma cruzi growth suppression in host cells – NIH3T3 host cells, beta-gal luminescence, confirmation (AID 2044); format: functional, cell-based;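 also: intracellular parasites grown in NIH/3T3 mouse fibroblasts as host cells; luminescent beta-galactosidase reporter signal from transgenic T. cruzi replicating inside host cells; inhibitors lower the luminescence signal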
[7] = NIH3T3 cell viability loss – ATP luminescence, mouse fibroblasts, counter-screen, dose response (AID 2010); format: functional, cell-based;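 also: cells exposed to compound for about 90 hours before reading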
[8] = test system: Vero; experiment: viability of Vero cells under compound – cytotoxicity control for flavivirus capping enzyme inhibitors (AID 588742); format: functional; details: Chlorocebus sabaeus
[9] = target: Genome polyprotein (dengue virus type 2, UniProt P29990); experiment: flavivirus cap methylation enzyme inhibition – biochemical, confirmation dose response, primary screen (AID 588689); format: functional
[10] = target: T1, Polyadenylate-binding protein 1 (Homo sapiens, UniProt P11940); experiment: MLLE binding blockers, Cy5 peptide tracer – biochemical, fluorescence polarization, Cy5-PAM2 peptide, secondary, miRNA deadenylation inhibitor project, dose response (AID 602260); format: functional; details: read-out: IC50_Mean
[11] = target: T1, Polyadenylate-binding protein 1; experiment: MLLE domain peptide-binding blockers, IC50 – biochemical, fluorescence polarization, FITC-PAM2 peptide, dose response (AID 602259); format: functional; details: read-out: IC50_Mean
[12] = target: T2, Cytochrome P450 1A2 (Homo sapiens, UniProt P05177);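 also: PubChem cytochrome P450 panel assay, CYP1A2 panel member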
T2 sequence (P05177 whole entry): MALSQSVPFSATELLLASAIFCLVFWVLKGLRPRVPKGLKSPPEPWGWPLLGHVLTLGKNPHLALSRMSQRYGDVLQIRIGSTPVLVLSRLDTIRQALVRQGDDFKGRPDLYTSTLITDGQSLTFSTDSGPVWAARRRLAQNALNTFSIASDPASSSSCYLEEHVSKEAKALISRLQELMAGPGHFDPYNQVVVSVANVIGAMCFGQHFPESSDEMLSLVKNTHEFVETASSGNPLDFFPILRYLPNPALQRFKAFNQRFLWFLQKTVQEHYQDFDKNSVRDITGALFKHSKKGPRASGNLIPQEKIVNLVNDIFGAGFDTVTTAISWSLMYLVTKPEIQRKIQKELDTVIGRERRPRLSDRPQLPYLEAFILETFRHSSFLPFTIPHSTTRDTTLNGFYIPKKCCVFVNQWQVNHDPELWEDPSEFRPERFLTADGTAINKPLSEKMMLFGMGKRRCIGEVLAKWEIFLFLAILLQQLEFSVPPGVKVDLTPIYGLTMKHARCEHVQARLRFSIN

[13] = target: Cytochrome P450 2C9 (Homo sapiens, UniProt P11712)
[14] = NIH-3T3 fibroblast cytotoxicity, dose response, cytotoxicity control, cell-based, fluorescence, Alamar Blue, secondary assay (AID 2327); format: functional;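 also: NIH-3T3 mouse fibroblasts cultured with fluconazole at 8 µg/mL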
[15] = target: T3, Leucine aminopeptidase (Plasmodium falciparum 3D7, UniProt Q8IL11); experiment: P. falciparum M17LAP inhibitors, primary screen, biochemical, fluorogenic H-Leu-NHMec substrate, 1536-well (AID 1619); format: functional
T3 sequence (Q8IL11 whole entry): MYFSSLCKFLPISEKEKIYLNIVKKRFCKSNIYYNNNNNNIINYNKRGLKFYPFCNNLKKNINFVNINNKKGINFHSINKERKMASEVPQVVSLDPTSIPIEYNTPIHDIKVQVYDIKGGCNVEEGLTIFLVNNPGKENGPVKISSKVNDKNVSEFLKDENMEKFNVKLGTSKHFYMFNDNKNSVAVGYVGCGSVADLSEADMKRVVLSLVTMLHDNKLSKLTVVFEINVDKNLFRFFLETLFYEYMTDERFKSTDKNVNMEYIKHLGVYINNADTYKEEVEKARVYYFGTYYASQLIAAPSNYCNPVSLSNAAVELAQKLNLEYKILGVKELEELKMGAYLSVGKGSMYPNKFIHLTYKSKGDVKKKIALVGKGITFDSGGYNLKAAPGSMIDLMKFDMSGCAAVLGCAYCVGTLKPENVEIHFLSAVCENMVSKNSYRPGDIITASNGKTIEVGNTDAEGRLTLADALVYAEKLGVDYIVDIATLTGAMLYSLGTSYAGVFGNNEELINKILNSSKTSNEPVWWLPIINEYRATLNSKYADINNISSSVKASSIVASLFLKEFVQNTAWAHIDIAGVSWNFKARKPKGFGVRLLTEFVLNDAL

[16] = fluconazole-exposed Candida albicans growth modulators – fluorescence, retest, confirmation (AID 2467); format: functional, cell-based
[17] = target: T4, Short transient receptor potential channel 4 (Mus musculus, UniProt Q9QUQ5); experiment: calcium entry via TRPC4 opening agents – cell-based, HEK293 TRPC4/mu-opioid, Fluo-4 calcium, dose response (AID 434937); format: functional
T4 sequence (Q9QUQ5 whole entry): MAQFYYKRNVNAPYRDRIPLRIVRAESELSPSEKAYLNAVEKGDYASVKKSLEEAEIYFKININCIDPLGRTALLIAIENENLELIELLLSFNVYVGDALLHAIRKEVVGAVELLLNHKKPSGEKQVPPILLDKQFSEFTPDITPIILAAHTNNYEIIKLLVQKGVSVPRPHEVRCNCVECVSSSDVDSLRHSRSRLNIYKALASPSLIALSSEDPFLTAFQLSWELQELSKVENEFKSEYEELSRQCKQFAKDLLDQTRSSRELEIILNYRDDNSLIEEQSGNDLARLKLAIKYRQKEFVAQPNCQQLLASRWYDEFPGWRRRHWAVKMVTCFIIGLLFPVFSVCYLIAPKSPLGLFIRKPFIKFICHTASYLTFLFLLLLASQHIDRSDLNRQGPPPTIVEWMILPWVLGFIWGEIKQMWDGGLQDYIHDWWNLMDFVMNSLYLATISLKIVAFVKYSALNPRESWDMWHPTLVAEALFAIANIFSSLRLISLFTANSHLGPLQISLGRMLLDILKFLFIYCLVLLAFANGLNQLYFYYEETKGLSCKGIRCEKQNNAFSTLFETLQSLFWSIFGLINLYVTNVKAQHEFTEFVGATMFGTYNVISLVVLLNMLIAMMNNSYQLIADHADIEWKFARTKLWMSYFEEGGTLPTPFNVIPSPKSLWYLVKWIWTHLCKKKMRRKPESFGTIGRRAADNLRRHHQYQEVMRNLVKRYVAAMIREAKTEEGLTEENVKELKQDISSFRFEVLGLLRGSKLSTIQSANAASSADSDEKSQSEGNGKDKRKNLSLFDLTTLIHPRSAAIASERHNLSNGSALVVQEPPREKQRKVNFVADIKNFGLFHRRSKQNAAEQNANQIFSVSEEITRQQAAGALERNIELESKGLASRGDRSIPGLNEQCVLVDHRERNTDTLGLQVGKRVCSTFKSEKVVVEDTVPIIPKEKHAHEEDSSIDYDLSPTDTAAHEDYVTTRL

[18] = target: Heat shock protein HSP 90-alpha (Homo sapiens, UniProt P07900); format: functional, organism-based
[19] = target: T5, High affinity choline transporter 1 (Homo sapiens, UniProt Q9GZV3); experiment: human choline transporter blockers, potency – cell-based, 5-point CRC, membrane potential dye, dose response (AID 504840); format: functional
T5 sequence (Q9GZV3 whole entry): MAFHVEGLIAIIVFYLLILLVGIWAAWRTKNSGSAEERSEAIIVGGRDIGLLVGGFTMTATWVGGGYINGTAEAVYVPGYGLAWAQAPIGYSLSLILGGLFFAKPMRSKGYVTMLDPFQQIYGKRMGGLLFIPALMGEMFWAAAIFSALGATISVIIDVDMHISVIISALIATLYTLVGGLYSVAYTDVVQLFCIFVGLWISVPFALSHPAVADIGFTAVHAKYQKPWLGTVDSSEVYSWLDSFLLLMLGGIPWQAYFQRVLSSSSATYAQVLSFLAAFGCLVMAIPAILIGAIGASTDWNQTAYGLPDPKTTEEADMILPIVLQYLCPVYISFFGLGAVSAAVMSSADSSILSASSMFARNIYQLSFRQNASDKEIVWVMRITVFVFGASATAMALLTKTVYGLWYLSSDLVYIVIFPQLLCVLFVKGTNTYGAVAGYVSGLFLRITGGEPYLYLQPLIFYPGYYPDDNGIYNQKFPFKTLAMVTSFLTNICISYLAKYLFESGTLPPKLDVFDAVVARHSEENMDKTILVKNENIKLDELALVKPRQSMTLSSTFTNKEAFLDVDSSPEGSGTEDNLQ

[20] = test system: Vero; experiment: cells; format: functional, cell-based; details: Chlorocebus sabaeus
[21] = test system: Vero; experiment: cells; format: functional; details: Chlorocebus sabaeus
[22] = target: Peroxisome proliferator-activated receptor gamma/Nuclear receptor coactivator 2 (Homo sapiens, UniProt P37231); format: functional;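 also: agonist potency for raising coactivator recruitment to the receptor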
[23] = target: Peroxisome proliferator-activated receptor gamma/Nuclear receptor coactivator 1 (Homo sapiens, UniProt P37231); format: functional;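 also: agonist potency as compounds enhance coactivator SRC-1 recruitment to PPARgamma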
[24] = target: Peroxisome proliferator-activated receptor gamma/Nuclear receptor coactivator 3 (Homo sapiens, UniProt P37231); format: functional;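 also: agonist potency for raising coactivator recruitment to the receptor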
[25] = viability of PTEN-deleted HCT116 cells – cell-based, HCT116 PTEN knockout, dose response (AID 1047); format: functional;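 also: HCT116 colon tumor cells with PTEN knocked out; cells exposed to compound for 60 hours before readout; potency for loss of cell viability measured by luminescence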
[26] = viability of HCT116 lacking mutant beta-catenin – cell-based, human colon tumor, dose response (AID 1045); format: functional;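 also: HCT116 colon tumor cells with beta catenin knocked out; cells exposed to compound for 60 hours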

T1 sequence (P11940 whole entry, the tested form may be a part): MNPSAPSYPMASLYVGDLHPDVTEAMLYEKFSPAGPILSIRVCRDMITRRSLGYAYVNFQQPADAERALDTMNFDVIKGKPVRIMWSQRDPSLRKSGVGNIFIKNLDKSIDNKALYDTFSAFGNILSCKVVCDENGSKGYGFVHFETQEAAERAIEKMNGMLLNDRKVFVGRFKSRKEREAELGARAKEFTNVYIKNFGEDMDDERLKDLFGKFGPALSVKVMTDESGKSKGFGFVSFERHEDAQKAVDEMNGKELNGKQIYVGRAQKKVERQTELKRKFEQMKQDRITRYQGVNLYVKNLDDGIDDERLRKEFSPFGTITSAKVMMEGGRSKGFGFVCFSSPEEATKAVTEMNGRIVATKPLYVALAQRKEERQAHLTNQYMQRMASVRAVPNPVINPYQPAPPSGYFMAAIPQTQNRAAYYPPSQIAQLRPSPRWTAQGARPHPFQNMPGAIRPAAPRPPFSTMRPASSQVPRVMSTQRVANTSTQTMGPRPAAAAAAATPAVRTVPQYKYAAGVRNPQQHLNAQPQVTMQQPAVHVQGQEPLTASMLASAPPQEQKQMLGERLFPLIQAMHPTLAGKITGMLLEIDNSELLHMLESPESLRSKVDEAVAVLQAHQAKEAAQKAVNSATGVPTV
Cytochrome P450 2C9, sequence (P11712 whole entry): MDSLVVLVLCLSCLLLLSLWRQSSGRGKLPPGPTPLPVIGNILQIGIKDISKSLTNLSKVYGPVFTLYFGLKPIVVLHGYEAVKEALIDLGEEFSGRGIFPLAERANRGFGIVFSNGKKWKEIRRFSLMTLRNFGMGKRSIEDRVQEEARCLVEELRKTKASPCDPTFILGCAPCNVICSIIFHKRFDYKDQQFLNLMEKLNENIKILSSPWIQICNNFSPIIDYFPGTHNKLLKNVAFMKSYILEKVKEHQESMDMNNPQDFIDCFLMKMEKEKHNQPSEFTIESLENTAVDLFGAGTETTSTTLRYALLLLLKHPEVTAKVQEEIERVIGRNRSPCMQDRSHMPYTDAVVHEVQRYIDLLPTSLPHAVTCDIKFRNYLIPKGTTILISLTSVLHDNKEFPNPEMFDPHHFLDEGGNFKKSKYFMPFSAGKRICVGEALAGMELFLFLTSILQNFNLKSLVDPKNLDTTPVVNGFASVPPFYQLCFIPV
Peroxisome proliferator-activated receptor gamma/Nuclear receptor coactivator 2, sequence (P37231 whole entry): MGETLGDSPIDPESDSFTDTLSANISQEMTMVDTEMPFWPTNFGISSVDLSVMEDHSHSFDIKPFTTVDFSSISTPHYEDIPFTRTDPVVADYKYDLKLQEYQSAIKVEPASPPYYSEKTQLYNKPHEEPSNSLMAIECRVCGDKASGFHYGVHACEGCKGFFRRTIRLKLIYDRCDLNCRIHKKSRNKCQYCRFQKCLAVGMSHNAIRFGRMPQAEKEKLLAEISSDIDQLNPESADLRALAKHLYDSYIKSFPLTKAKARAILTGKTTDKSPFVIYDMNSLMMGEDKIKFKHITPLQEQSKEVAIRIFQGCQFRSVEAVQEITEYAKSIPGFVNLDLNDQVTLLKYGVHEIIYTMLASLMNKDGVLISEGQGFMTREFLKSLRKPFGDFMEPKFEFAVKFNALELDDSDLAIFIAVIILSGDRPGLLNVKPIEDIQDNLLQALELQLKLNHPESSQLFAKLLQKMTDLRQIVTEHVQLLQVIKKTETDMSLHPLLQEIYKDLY
Peroxisome proliferator-activated receptor gamma/Nuclear receptor coactivator 2, sequence (Q15596 whole entry, further chain): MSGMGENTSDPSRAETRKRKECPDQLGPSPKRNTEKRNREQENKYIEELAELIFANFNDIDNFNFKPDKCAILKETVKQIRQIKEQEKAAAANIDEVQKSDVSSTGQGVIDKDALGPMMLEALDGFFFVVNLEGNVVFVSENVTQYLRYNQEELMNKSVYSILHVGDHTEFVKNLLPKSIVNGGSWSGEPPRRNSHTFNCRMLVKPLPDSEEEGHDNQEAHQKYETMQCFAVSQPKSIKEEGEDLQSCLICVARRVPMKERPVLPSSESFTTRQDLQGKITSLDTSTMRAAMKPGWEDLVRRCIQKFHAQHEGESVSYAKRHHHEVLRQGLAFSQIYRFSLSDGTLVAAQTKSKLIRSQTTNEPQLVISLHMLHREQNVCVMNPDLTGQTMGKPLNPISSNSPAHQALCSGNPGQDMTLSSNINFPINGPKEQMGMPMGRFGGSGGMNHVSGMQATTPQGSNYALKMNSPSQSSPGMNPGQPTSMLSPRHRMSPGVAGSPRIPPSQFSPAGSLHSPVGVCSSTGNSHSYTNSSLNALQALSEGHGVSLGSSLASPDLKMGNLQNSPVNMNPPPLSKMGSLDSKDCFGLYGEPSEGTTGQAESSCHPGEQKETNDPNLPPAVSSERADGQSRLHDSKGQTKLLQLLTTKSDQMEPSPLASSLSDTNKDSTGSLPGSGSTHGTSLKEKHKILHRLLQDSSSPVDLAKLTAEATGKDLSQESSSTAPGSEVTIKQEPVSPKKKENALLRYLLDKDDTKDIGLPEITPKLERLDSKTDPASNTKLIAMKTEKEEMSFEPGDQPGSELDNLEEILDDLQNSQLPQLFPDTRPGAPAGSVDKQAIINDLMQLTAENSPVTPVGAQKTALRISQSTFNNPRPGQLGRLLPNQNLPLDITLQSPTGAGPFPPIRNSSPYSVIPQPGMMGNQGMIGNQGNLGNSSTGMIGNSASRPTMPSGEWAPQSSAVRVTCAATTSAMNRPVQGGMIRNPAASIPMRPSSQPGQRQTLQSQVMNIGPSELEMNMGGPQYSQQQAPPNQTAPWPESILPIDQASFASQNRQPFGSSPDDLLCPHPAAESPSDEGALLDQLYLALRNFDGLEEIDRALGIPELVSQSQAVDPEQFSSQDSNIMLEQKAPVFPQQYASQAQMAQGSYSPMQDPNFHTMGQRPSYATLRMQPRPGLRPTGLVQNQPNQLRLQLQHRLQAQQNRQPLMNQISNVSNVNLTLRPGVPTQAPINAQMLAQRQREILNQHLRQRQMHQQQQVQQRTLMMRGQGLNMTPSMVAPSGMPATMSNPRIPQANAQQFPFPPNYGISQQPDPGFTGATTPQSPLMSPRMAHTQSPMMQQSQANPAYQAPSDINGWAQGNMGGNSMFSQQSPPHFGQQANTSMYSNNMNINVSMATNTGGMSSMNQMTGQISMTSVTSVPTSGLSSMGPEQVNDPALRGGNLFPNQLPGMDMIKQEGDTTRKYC
Peroxisome proliferator-activated receptor gamma/Nuclear receptor coactivator 3, sequence (P37231 whole entry): as the sequence (P37231 whole entry) above
Peroxisome proliferator-activated receptor gamma/Nuclear receptor coactivator 3, sequence (Q9Y6Q9 whole entry, further chain): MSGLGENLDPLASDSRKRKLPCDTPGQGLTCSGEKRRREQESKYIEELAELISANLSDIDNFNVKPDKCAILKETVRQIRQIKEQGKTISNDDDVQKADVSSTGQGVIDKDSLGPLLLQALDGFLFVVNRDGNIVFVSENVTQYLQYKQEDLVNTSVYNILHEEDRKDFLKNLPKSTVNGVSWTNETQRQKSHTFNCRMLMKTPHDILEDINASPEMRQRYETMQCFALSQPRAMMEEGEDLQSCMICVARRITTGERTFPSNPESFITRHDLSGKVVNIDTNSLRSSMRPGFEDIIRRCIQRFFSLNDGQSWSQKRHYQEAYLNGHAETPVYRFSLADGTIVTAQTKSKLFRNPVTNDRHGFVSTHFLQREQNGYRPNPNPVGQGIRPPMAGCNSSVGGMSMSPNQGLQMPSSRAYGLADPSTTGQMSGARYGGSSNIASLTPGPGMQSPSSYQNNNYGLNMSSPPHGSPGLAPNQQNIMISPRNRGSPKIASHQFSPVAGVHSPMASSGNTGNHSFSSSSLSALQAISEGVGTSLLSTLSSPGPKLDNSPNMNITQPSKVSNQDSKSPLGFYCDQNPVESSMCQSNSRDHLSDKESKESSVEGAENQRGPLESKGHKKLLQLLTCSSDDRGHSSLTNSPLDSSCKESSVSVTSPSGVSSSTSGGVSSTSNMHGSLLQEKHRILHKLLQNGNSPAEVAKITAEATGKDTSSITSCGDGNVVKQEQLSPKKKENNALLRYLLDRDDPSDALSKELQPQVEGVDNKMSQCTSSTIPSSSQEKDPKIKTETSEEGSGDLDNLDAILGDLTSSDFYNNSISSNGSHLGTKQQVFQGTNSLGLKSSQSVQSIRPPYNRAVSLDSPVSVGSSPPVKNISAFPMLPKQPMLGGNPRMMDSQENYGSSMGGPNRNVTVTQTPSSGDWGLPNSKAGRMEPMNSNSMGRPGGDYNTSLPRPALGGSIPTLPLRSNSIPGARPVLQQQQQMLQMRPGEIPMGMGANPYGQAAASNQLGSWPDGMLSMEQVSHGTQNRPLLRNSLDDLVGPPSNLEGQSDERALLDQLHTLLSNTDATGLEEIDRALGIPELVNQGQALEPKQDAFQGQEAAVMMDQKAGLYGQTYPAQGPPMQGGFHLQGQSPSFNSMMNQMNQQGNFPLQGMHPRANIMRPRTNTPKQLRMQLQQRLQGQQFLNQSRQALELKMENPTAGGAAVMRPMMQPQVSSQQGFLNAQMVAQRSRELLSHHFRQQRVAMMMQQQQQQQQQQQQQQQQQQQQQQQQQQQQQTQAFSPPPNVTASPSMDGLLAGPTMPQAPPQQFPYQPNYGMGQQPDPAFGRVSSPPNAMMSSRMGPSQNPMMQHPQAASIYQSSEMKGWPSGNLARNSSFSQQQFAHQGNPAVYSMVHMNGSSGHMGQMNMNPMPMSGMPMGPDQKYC

For `O=C1c2ccc3c4c(ccc(c24)C(=O)N1CCCCO)C(=O)N(CCCCO)C3=O`, the EC50 [1] was > 120 µM (not active), the IC50 [2] was 2.96 µM (active) and the EC50 [3] was 13.6 µM (active). For the same compound, the IC50 [4] was 1.99 µM (active), the EC50 [5] was 3.4 µM (active) and the EC50 [6] was 2.25 µM (active). For the same compound, the EC50 [7] was 4.23 µM (active), the CC50 [8] was 5.55 µM (active) and the IC50 [9] was > 100 µM (active). For the same compound, the IC50 [10] was > 66 µM (inactive) and the IC50 [11] was 23.8 µM (inactive).

In the case of `CCOC(=O)c1c(C)c(C(=O)N2CCCCCC2)c(C)n1C`, the AC50 [12] is reported as 25.1 µM (inconclusive) and the AC50 [13] is reported as “inconclusive”.

With `COc1ccc2[nH]c3c(N4CCN(Cc5ccc6c(c5)OCO6)CC4)ncnc3c2c1` the IC50 [2] was 2.79 µM (active) and the IC50 [4] was 2.58 µM (active).

In the case of `Cc1cccc(C(=O)NC(=S)NNC(=O)Cc2ccccc2)c1`, the EC50 [14] is reported as > 150 µM (inactive), the IC50 [15] is reported as 56.6 µM (active) and the EC50 [16] is reported as 1.14 µM (active). The EC50 [17] was 4.22 µM (active), the AC50 [18] was 4.66 µM (active) and the IC50 [19] was 13.2 µM (active). The IC50 [20] was 22.7 µM (active) and the CC50 [21] was > 25 µM (active).

In the case of `CCOc1ccc(-c2nn(-c3ccccc3)cc2/C=C2\SC(N)=NC2=O)cc1C`, the EC50 [22] is reported as > 79.4 µM (not active), the EC50 [23] is reported as > 79.4 µM (not active) and the EC50 [24] is reported as > 79.4 µM (not active). The EC50 [25] was 8.6 µM (active), the EC50 [26] was 8.58 µM (active) and the AC50 [12] was 15.8 µM (inconclusive). For the same compound, the AC50 [13] was “inconclusive”.
